The values below come from patent publication US10918610B2, “Compounds and methods of promoting myelination” (Case Western Reserve University, priority 2017, dated 2021).

Each structure is given as a SMILES string.

Test [1] deals with corpus callosum. Briefly: LPC-induced demyelination in corpus callosum, DTI-MRI fractional anisotropy. In kind it is in vivo, Sprague-Dawley male rats. The settings on record: rats, 20 mg/kg intraperitoneal QD. The procedure: In total, 30 Sprague-Dawley male rats (˜200-300 g) were infused with lysophosphatidylcholine (LPC) on the ipsilateral side and with vehicle for LPC on the contralateral side of the corpus callosum in order to induce demyelination. […] Cis-N-cyclohexyl-N-ethyl-3-(3-chloro-4-cyclohexylphenyl)prop-2-enylamine was diluted to a final concentration of 2.5% ETOH and 2.5% Kolliphor in Saline. DTI-MRI was used as a primary method to quantify the demyelinated lesion and to assess the organization of white matter in corpus callosum over time, on days 3, 10 and 15. Day 3 served as a baseline followed by repeated analyses during the therapeutic period. On day 15, the animals were euthanized and tissue samples collected. The amount of demyelination and the extent of neuronal loss were analyzed by histological analysis of MBP and Nissl substance, respectively, in corpus callosum.
Demyelination in corpus callosum was induced by stereotactic infusion of lysophospatidylcholine (LPC, Santa Cruz, Calif., USA) directly to the target tissue. First, rats were anesthetized with 5% isoflurane (in 70% N20 and 30% 02; flow 300 ml/min) and placed in a stereotactic frame. […]
Analgesics were administered during and after the surgery. […] Rats were carefully monitored by laboratory personnel twice a day and any rats prematurely fulfilling the criteria for humane end-points were euthanized during the study. […]

For test [2], the system named is EpiSC-derived OPCs. Briefly: Oligodendrocyte formation and myelin sheaths on electrospun microfibers. In kind it is cell-based, mouse. The following applies: 100 nM, versus untreated OPCs; microscopic images. The protocol:
A 12-well plate containing Mimetex aligned scaffold (microfiber plate, AMSBIO, AMS.TECL-006-1X, Electrospun poly-L-lactide Scaffold, […] fibre diameter cell crown inserts) was prepared as previously described. Briefly, inserts were sterilized with 70% ethanol and washed with PBS before being coated with polyornithine and laminin. After laminin coating, 100,000 cells/mL of EpiSC-derived OPCs were plated in differentiation medium. After 24 h the media was replaced with fresh media containing small molecule treatments. […] Plates were fixed with 4% PFA, permeabilized with 0.1% Triton X-100, and blocked with 10% donkey serum (v/v) in PBS for 60 min. Plates were stained for MBP (Abcam, ab7349; 1:100) and DAPI staining (Sigma; 5 μg/ml). After staining, the inserts were moved into new 12-well plate and covered with 2 mL of PBS before imaging in Operetta high content Imaging and analysis system. Plates were imaged on the Operetta High Content Imaging and Analysis system (PerkinElmer) and a set of 8 fields captured from each well resulting in an average of 45,000 cells being scored per well. Analysis (PerkinElmer Harmony and Columbus software) identified intact nuclei stained by DAPI and calculated the MBP signal intensity per cell per well. Microfiber insert tracking images were taken using a Leica DMi8 with a 20× Dry/NA 0.40 objective. […]

With `CCN(C/C=C\c1ccc(C2CCCCC2)c(Cl)c1)C1CCCCC1` [Cis-N-cyclohexyl-N-ethyl-3-(3-chloro-4-cyclohexylphenyl)prop-2-enylamine], the “ipsilateral FA measurements, difference between the groups at Day 15” value in test [1] (Day 15) is listed as “trend in improvement”. Also, the “fractional anisotropy (FA) value of the ipsilateral side (FIG. 8B)” value in test [1] (days 3-15 after LPC infusion, versus vehicle) was “noticeable recovery of the FA value”. In test [2], the “amount of myelin sheaths formed on electrospun poly-L-lactide scaffold microfibers” value was “significant increase in the amount of myelin sheaths”.
